{
  "source": "patent US12545677B2",
  "about": "“Compounds useful as factor XIa inhibitors” (JANSSEN PHARMACEUTICA NV, priority 2020, dated 2026)",
  "key": {"[1]": {"system": "TK6 human lymphoblastoid cell line", "assay": "In vitro micronucleus assay", "format": "cell-based", "conditions": "TK6 cells, 3 h +S9 and continuous -S9; score of 1 = clearly negative", "method": "Biological Example 8: In Vitro Micronucleus Assay\nThe in vitro micronucleus test (MNT) is a genotoxicity test for the detection of micronuclei (MN) in the cytoplasm of interphase cells. Micronuclei may originate from acentric chromosome fragments (i.e., lacking a centromere) or whole chromosomes that are unable to migrate to the poles during the anaphase stage of cell division. Compounds and/or their metabolites are evaluated for their ability to induce chromosome/genome aberrations in a TK6 human lymphoblastoid cell line, in the absence and in the presence of a mammalian metabolic activation system. Human TK6 cells are often used in the in vitro micronucleus test and it is noteworthy that these cells have a wild-type p53 status, a feature that some groups speculate may help to reduce the frequency of false positive results. The assessment is done by means of manual and/or semi-automated microscopical analysis.\nThe in vitro micronucleus test using TK6 cells is an accepted regulatory genotoxicity assay. […]\nAssay principle: Cell cultures were exposed to the test compound both with and without an exogenous source of metabolic activation. […] Harvested and stained interphase cells were analyzed for the presence of micronuclei. […]"}, "[2]": {"system": "activated partial thromboplastin time (aPTT)", "assay": "Ex vivo clotting assay (aPTT)", "format": "in vivo, New Zealand White (NZW) rabbits", "conditions": "for ex vivo aPTT Onset of Clotting Time, mean: n 4, in s (unit assumed)", "source_text": "The following coagulation reagents were purchased from Diagnostica Stago (Parsippany, NJ): Thrombin 10 (Catalog No: 00611, lot No: 251851) for thrombin time (TT), Neoplastine® Cl 5 (Catalog No: 00666, lot No: 01504) for prothrombin time (PT), C.K. Prest® 5 (Catalog No: 00597, lot No: 112768) and CaCl2 (0.025 M, Catalog No: 00367, Lot No: 254158) for activated partial thromboplastin time (aPTT). Coagulometer STA rt4 (Diagnotica Stago) was used for ex vivo clotting time analysis.\nBlood samples (1 mL each) were collected in 3.2% sodium citrate (BD Biosciences, Franklin Lakes, NJ) before and after shunt set up from the femoral artery cannula and centrifuged at 2500 g for 15 minutes at 20° C. The resulting platelet poor plasma (PPP) was transferred into clean tubes and stored at −80° C. until use.\nCoagulation assays were performed with PPP in a 4 channel coagulometer STA rt4 (Diagnotica Stago). For the aPTT assay, 50 μl C.K. Preset reagent was incubated with 50 μl PPP for 3 min at 37° C. in a cuvette, and coagulation was initiated by adding 50 μl 25 mM CaCl2). The onset of clotting was recorded as the coagulation time.\nStatistical analysis: All the data are expressed as mean±SEM. Statistical analyses were performed using GraphPad Prism software (v8.0). Significance was defined at p<0.05 as determined by one-way ANOVA. Tukey's test was used for multiple comparisons."}, "[3]": {"conditions": "0.15 + 0.13 mg/kg initial + maintenance, 20 min post initial dose"}, "[4]": {"conditions": "0.15 + 0.13 mg/kg initial + maintenance, 60 min post initial dose"}, "[5]": {"conditions": "0.5 + 0.43 mg/kg initial + maintenance, 20 min post initial dose"}, "[6]": {"conditions": "0.5 + 0.43 mg/kg initial + maintenance, 60 min post initial dose"}, "[7]": {"conditions": "1.5 + 1.3 mg/kg initial + maintenance, 20 min post initial dose"}, "[8]": {"conditions": "1.5 + 1.3 mg/kg initial + maintenance, 60 min post initial dose"}, "[9]": {"conditions": "5.0 + 4.3 mg/kg initial + maintenance, 20 min post initial dose"}, "[10]": {"conditions": "5.0 + 4.3 mg/kg initial + maintenance, 60 min post initial dose"}, "[11]": {"conditions": "15.0 + 13.0 mg/kg initial + maintenance, 20 min post initial dose"}, "[12]": {"conditions": "15.0 + 13.0 mg/kg initial + maintenance, 60 min post initial dose"}},
  "data": [
    {"smiles": "O=C1C=C(c2c(-n3cnnn3)ccc(Cl)c2F)C[C@H]2CC[C@@H](c3ncc(-c4ccnc(CO)c4F)[nH]3)N12", "note": "[Compound of formula (I-A), (3S,8aR)-7-(3-Chloro-2-fluoro-6-(1H-tetrazol-1-yl)phenyl)-3-(5-(3-fluoro-2-(hydroxymethyl)pyridin-4-yl)-1H-imidazol-2-yl)-2,3,8,8a-tetrahydroindolizin-5(1H)-one]", "values": [
      {"measurement": "in vitro MNT assay result", "setting": "[1]", "value": "negative"},
      {"measurement": "ex vivo aPTT, Fold vs baseline", "setting": "[2]; [3]", "value": 1.37},
      {"measurement": "ex vivo aPTT Onset of Clotting Time, mean", "setting": "[2]; [3]", "value": 28.00},
      {"measurement": "ex vivo aPTT, Fold vs baseline", "setting": "[2]; [4]", "value": 1.17},
      {"measurement": "ex vivo aPTT Onset of Clotting Time, mean", "setting": "[2]; [4]", "value": 23.88},
      {"measurement": "ex vivo aPTT, Fold vs baseline", "setting": "[2]; [5]", "value": 1.24},
      {"measurement": "ex vivo aPTT Onset of Clotting Time, mean", "setting": "[2]; [5]", "value": 25.40},
      {"measurement": "ex vivo aPTT, Fold vs baseline", "setting": "[2]; [6]", "value": 1.02},
      {"measurement": "ex vivo aPTT Onset of Clotting Time, mean", "setting": "[2]; [6]", "value": 20.95},
      {"measurement": "ex vivo aPTT, Fold vs baseline", "setting": "[2]; [7]", "value": 1.59},
      {"measurement": "ex vivo aPTT Onset of Clotting Time, mean", "setting": "[2]; [7]", "value": 32.50},
      {"measurement": "ex vivo aPTT, Fold vs baseline", "setting": "[2]; [8]", "value": 1.37},
      {"measurement": "ex vivo aPTT Onset of Clotting Time, mean", "setting": "[2]; [8]", "value": 28.05},
      {"measurement": "ex vivo aPTT, Fold vs baseline", "setting": "[2]; [9]", "value": 2.32},
      {"measurement": "ex vivo aPTT Onset of Clotting Time, mean", "setting": "[2]; [9]", "value": 47.40},
      {"measurement": "ex vivo aPTT, Fold vs baseline", "setting": "[2]; [10]", "value": 2.14},
      {"measurement": "ex vivo aPTT Onset of Clotting Time, mean", "setting": "[2]; [10]", "value": 43.75},
      {"measurement": "ex vivo aPTT, Fold vs baseline", "setting": "[2]; [11]", "value": 3.40},
      {"measurement": "ex vivo aPTT Onset of Clotting Time, mean", "setting": "[2]; [11]", "value": 69.6},
      {"measurement": "ex vivo aPTT, Fold vs baseline", "setting": "[2]; [12]", "value": 3.27},
      {"measurement": "ex vivo aPTT Onset of Clotting Time, mean", "setting": "[2]; [12]", "value": 67.00}
    ]}
  ]
}
